Measured values as given in publication PMC11521726, “Surface plasmon resonance, molecular docking, and molecular dynamics simulation studies of lysozyme interaction with tannic acid” (Food Science & Nutrition, 2024).

Target: T1, Chicken egg white lysozyme (CEWLZM) (Gallus gallus, UniProt P00698)
T1 construct: gene LYZ
Assay: SPR kinetics, CEWLZM amine-coupled on MUA gold chip, TA […], PBS pH […]°C
Type: binding

T1 sequence (P00698 19-147): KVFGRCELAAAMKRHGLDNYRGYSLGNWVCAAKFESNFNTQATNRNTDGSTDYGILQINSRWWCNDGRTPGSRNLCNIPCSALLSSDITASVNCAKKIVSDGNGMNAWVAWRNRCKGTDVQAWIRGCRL

Kd: 41.7 µM
Compound: O=C(OC[C@H]1O[C@@H](OC(=O)c2cc(O)c(O)c(OC(=O)c3cc(O)c(O)c(O)c3)c2)[C@H](OC(=O)c2cc(O)c(O)c(OC(=O)c3cc(O)c(O)c(O)c3)c2)[C@@H](OC(=O)c2cc(O)c(O)c(OC(=O)c3cc(O)c(O)c(O)c3)c2)[C@@H]1OC(=O)c1cc(O)c(O)c(OC(=O)c2cc(O)c(O)c(O)c2)c1)c1cc(O)c(O)c(OC(=O)c2cc(O)c(O)c(O)c2)c1 [TA, tannic acid]
